Measurements: PMC10525135, “Computationally Designed AMPs with Antibacterial and Antibiofilm Activity against MDR Acinetobacter baumannii” (Antibiotics, 2023)
≈ marks a conversion by molar mass, not a printed value. Read-outs that look alike come from different tables or passages of the source. Marks after values point to notes of the source that are not given here. Residues, ends and D or L forms follow the SMILES beside them. No end group written: not given here.

Assays:
A. baumannii BAA-1710 = assay type: cell-based, Acinetobacter baumannii
Description: (§1) Minimum inhibitory concentration (n = 3) was performed according to the CLSI protocols with a minor modification, in which Difco Mueller Hinton broth (BD 275730, Franklin Lakes, NJ, USA) was used instead of cation-adjusted Mueller Hinton broth following Wiegand et al.’s standardized protocol for testing AMPs. Bacteria were grown overnight in an opaque colony, and the concentration was determined using McFarland’s technique. An aliquot of 50 µL of 1 × 10^6 CFU/mL of bacteria was incubated with a decreasing series of peptide concentration to achieve a final bacterial concentration of 5 × 10^5 CFU/mL at 37 °C 5% CO2 for 20–24 h in Difco Mueller Hinton broth. Dilutions were performed in a 96-well polypropylene plate (Corning 3879, Corning, NY, USA). This is critical to avoid peptide binding to the plate. Results were obtained by measuring bacterial growth at OD600 nm. LL-37 and polymyxin B were used as positive controls. Samples containing only the medium and medium with peptides were used as the sterility controls and samples containing only bacteria in MHB served as the growth control. Each experiment was performed twice, and one representative experiment is shown.

[1] = system: A. baumannii strains AB5075, BAA-1710, -1794, and -1800; assay type: cell-based, Acinetobacter baumannii
Description: as §1

A. baumannii BAA-1794 = assay type: cell-based, Acinetobacter baumannii
Description: as §1

[2] = system: A. baumannii BAA-1800 biofilm
Description: The MBIC assay measures the lowest concentration of a compound that inhibits the biofilm formation of an organism. A series of decreasing peptide concentrations starting from 64 μg/mL to 0.25 μg/mL (100 µL) were incubated with 1 × 10^5 CFU of A. baumannii in 100 µL of Tryptic Soy broth (TSB) in a polystyrene 96-well plate (Falcon 353072, Corning, NY, USA) for 24 h at 37 °C to assess biofilm formation inhibition, as described previously with minor modifications. After the incubation of bacteria with AMPs, OD600 nm was measured for approximate bacterial growth. Media were carefully removed, and wells (n = 3) were rinsed with tap water. Plates were heat-fixed at 70 °C for 1 h, and 200 µL of 0.1% crystal violet diluted in deionized water were added to wells and allowed to incubate for 15 min. Excess stain was rinsed off with tap water, and the plates were air-dried. After that, 200 µL of 33% glacial acetic acid was added to resolubilize the stain, and biofilm mass was measured by a spectrophotometric reading at OD590. Bacteria alone (no treatment) served as the 100% biofilm control, and media alone and media with a peptide/drug were used as the sterility control and the 0% biofilm control.

[3] = system: defibrinated human red blood cells; assay: Hemolysis; assay type: cell-based; conditions: 2% hRBC in PBS, 1 h 37 °C, OD540, relative to Triton X-100, n = 3
Description: To measure the hemolytic activity of peptides, 2% human red blood cells were added to various dilutions of peptide reconstituted in PBS in a sterile U-bottom polypropylene 96-well plate following a protocol developed in our laboratory Briefly, defibrinated human blood was obtained from de-identified healthy donors from BioIVT (Westbury, NY, USA). An aliquot (1 mL) of blood was centrifuged at 1600× g for 10 min and plasma was discarded, and then 1 mL of sterile 1× PBS (HyClone) was used to wash red blood cells at least three times. In the last wash step, the supernatant was discarded, and the pallet was resuspended with 750 µL of sterile PBS. RBC suspension (2% RBC) was prepared by adding 200 µL of washed RBCs to 9.8 mL of sterile 1× PBS. A total of 50 µL of 2% RBCs were added to each well (n = 3) containing diluted peptides, resulting in a final peptide concentration of 100, 10, and 1 μg/mL. A total of 2% RBCs with 1× PBS alone served as the negative control (no peptide), and 2% RBC in Triton X-100 served as the positive control. The plate was incubated for 1 h at 37 °C and then centrifuged at 1000 rpm for 2 min. The supernatant was transferred to a fresh 96-well plate (tissue culture-treated Falcon 353072) and read at OD540. The percentage of hemolysis was calculated based on the 100% hemolysis control (Triton X-100). The experiment was repeated twice.

[4] = system: AB5075 pre-formed (24 h) biofilm; assay type: cell-based, Acinetobacter baumannii
Description: The MBEC assay measures the lowest concentration of an antimicrobial agent that can eradicate established biofilms. Using the MBEC assay in the Biofilm Inoculator 96-well base (Innovotech Cat #1911, Edmonton, AB, Canada) and following the manufacturer’s protocol, 150 µL (n = 6) of 1 × 10^6 CFU/mL of AB5075 in TSB was incubated for 24 h at 37 °C at 110 rpm for biofilm formation. The lid containing pegs was rinsed with sterile PBS for 5 min, and then the lid was placed in a peptide challenge polypropylene 96-well plate containing a decreasing series of drug concentrations and incubated for 24 h at 37 °C at 110 rpm. Pegs were washed three times with tap water, heat-fixed for 70 °C for 1 h, and stained with 0.1% crystal violet for 15 min. Excess stain was rinsed off with tap water and allowed to dry. Stained pegs were resolubilized with 200 µL of 33% glacial acetic acid. OD590 was obtained to measure the remaining biofilm. Pegs with only bacteria served as the growth control and 100% biofilm control. Media alone and media with a peptide/drug served as the sterility controls. […] The experiment was performed twice.

AB5075 = system: AB5075
Description: Bacteria were grown in 1 mL of MHB for 24 h. Experimental tubes that show growth in the presence of peptide/drug concentration were diluted 1:100. […] Colistin is reported to induce resistance within approximately 5–7 days for A. baumannii.

A. baumannii BAA-1800 = assay type: cell-based, Acinetobacter baumannii
Description: as §1

[5] = system: A. baumannii AB5075 (MRSN959); assay type: cell-based, Acinetobacter baumannii
Description: as §1

[6] = A. baumannii BAA-1710, Difco Mueller Hinton broth, 5 × 10^5 CFU/mL, 37 °C 5% CO2, 20–24 h, OD600, n = 3
[7] = summary over MDR A. baumannii strains of Table 3
[8] = A. baumannii BAA-1794, Difco Mueller Hinton broth, 5 × 10^5 CFU/mL, 37 °C 5% CO2, 20–24 h, OD600, n = 3
[9] = A. baumannii BAA-1800, TSB, 24 h 37 °C, crystal violet
[10] = A. baumannii BAA-1800, TSB, polystyrene plate, 24 h 37 °C, crystal violet OD590, n = 3
[11] = MBEC100, AB5075 24 h pre-formed biofilm on pegs, 24 h challenge, crystal violet OD590, n = 6
[12] = AB5075 passaged with subinhibitory drug

With CC[C@H](C)[C@H](NC(=O)[C@H](CCCCN)NC(=O)[C@H](CCC(=O)O)NC(=O)[C@H](CCCCN)NC(=O)[C@H](CO)NC(=O)[C@H](CCCCN)NC(=O)[C@H](CCCNC(=N)N)NC(=O)[C@H](Cc1ccccc1)NC(=O)[C@H](Cc1ccccc1)NC(=O)[C@H](CC(=O)O)NC(=O)CNC(=O)[C@H](CC(C)C)NC(=O)[C@@H](N)CC(C)C)C(=O)NCC(=O)N[C@@H](CCCCN)C(=O)N[C@@H](CCC(=O)O)C(=O)N[C@@H](Cc1ccccc1)C(=O)N[C@@H](CCCCN)C(=O)N[C@@H](CCCNC(=N)N)C(=O)N[C@H](C(=O)N[C@H](C(=O)N[C@@H](CCC(N)=O)C(=O)N[C@@H](CCCNC(=N)N)C(=O)N[C@H](C(=O)N[C@@H](CCCCN)C(=O)N[C@@H](CC(=O)O)C(=O)N[C@@H](Cc1ccccc1)C(=O)N[C@@H](CC(C)C)C(=O)N[C@@H](CCCNC(=N)N)C(=O)N[C@@H](CC(N)=O)C(=O)N[C@@H](CC(C)C)C(=O)N[C@H](C(=O)N1CCC[C@H]1C(=O)N[C@@H](CCCNC(=N)N)C(=O)N[C@H](C(=O)N[C@@H](CCC(=O)O)C(=O)N[C@@H](CO)C(=O)O)[C@@H](C)O)C(C)C)[C@@H](C)CC)C(C)C)[C@@H](C)CC [LL-37] the MIC (A. baumannii BAA-1710; [6]) was 32 µg/mL (≈ 7.12 µM), the “MIC across the tested strains” value [1, 7] was 8 to 32 µg/mL and the MIC (A. baumannii BAA-1794; [8]) was 16 to 32 µg/mL. The MIC (A. baumannii BAA-1794; A. baumannii BAA-1794, experiment shown in Figure S4) was 32 µg/mL (≈ 7.12 µM), the MBIC50 [2, 9] was ~ 32 µg/mL and the MBIC100 [2, 10] was 64 µg/mL. For the same compound, the Hemolysis ([3]; 10 µg/mL) was 5.4%, the Hemolysis ([3]; 100 µg/mL) was 22% and the MBEC50 ([4]; AB5075 24 h pre-formed biofilm, crystal violet) was 4 µg/mL. For the same compound, the MBEC [4, 11] was roughly 32 µg/mL.
With CC[C@H](C)CCCCC(=O)N[C@@H](CCN)C(=O)N[C@H](C(=O)N[C@@H](CCN)C(=O)N[C@H]1CCNC(=O)[C@H]([C@@H](C)O)NC(=O)[C@H](CCN)NC(=O)[C@H](CCN)NC(=O)[C@H](CC(C)C)NC(=O)[C@@H](CC(C)C)NC(=O)[C@H](CCN)NC1=O)[C@@H](C)O [colistin] (HELM PEPTIDE1{[CC[C@H](C)CCCCC(=O)[*:2]].[Dab].T.[Dab].[Dab].[Dab].[dL].L.[Dab].[Dab].T}$PEPTIDE1,PEPTIDE1,5:R3-11:R2$$$V2.0; N-terminus assumed; bridges inferred) the “MIC fold change reached, compared to the initial growth-inhibitory concentration” value (AB5075; AB5075, exposure for 15 days) was 512 × MIC, the MIC before exposure (AB5075; AB5075, initial MIC (passage 0)) was 0.5 µg/mL (≈ 0.428 µM) and the “MIC after the fifth day of exposure” value (AB5075; [12]) was 64 µg/mL. For the same compound, the “MIC fold change after the fifth day” value (AB5075; [12]) was 128 MIC fold.
In the case of FLKKIWKLLGKLL-NH2 [HRZN-16], the MIC (A. baumannii BAA-1710; BAA-1710) is reported as 16 µg/mL, the “MIC across the tested strains” value ([1]; BAA-1710) is reported as 16 µg/mL and the MIC (A. baumannii BAA-1800; BAA-1800) is reported as 16 µg/mL. It also gave an MIC (A. baumannii BAA-1794; BAA-1794) of 16 µg/mL and an MIC ([5]; AB5075 (MRSN959)) of 16 µg/mL.
In the case of FLPWISKFLGKIL-NH2 [HRZN-15], the MIC (A. baumannii BAA-1710; BAA-1710) is reported as 4 µg/mL, the “MIC across the tested strains” value ([1]; BAA-1710) is reported as 4 µg/mL and the MIC (A. baumannii BAA-1800; BAA-1800) is reported as 4 µg/mL. The MIC (A. baumannii BAA-1794; BAA-1794) was 4 µg/mL, the MBIC50 ([2]; BAA-1800, 24 h) was ~ 4 µg/mL and the MBIC100 ([2]; BAA-1800, 24 h) was 8 µg/mL. For the same compound, the “MIC at the 10th passage” value (AB5075; AB5075 passaged with peptide) was 8 µg/mL, the MBEC ([4]; 24 h) was 16 µg/mL and the MBEC50 ([4]; 24 h) was 8 µg/mL.
With FLWRISKFLGKKL-NH2 [HRZN-13] the MIC (A. baumannii BAA-1710; [6]) was 32 µg/mL, the “MIC across the tested strains” value [1, 7] was 32 to 64 µg/mL and the MIC (A. baumannii BAA-1800; A. baumannii BAA-1800, Difco Mueller Hinton broth, 5 × 10^5 CFU/mL, 37 °C 5% CO2, 20–24 h, OD600, n = 3) was 64 µg/mL. For the same compound, the MIC (A. baumannii BAA-1794; [8]) was 64 µg/mL, the MIC ([5]; A. baumannii AB5075 (MRSN959), Difco Mueller Hinton broth, 5 × 10^5 CFU/mL, 37 °C 5% CO2, 20–24 h, OD600, n = 3) was 32 µg/mL and the Hemolysis ([3]; 100 µg/mL) was 0.7%.
In the case of FLWRISKFLGRKL-NH2 [HRZN-14], the MIC (A. baumannii BAA-1710; BAA-1710) is reported as 32 µg/mL, the “MIC across the tested strains” value ([1]; BAA-1710) is reported as 16 to 64 µg/mL and the MIC (A. baumannii BAA-1800; BAA-1800) is reported as 32 µg/mL. The MIC (A. baumannii BAA-1794; BAA-1794) was 64 µg/mL.
KLWKLLKKLGRLL-NH2 [HRZN-17] was tested, and the MIC (A. baumannii BAA-1710; BAA-1710) was 32 µg/mL, the “MIC across the tested strains” value ([1]; BAA-1710) was 32 µg/mL and the MIC (A. baumannii BAA-1800; BAA-1800) was 32 µg/mL. The MIC (A. baumannii BAA-1794; BAA-1794) was 32 µg/mL and the MIC ([5]; AB5075 (MRSN959)) was 32 µg/mL.
With VRLIVAVRIWRR-NH2 [IDR-1018] the MBIC50 [2, 9] was ~ 32 µg/mL, the MBIC100 [2, 10] was >64 * µg/mL and the MBEC [4, 11] was greater than 32 µg/mL.
